Earlier results as cited in patent US20040037880A1, “Extended release formulation of divalproex sodium” (priority 2002, published 2004).
Read-outs that look alike come from different tables or passages of the source.

Structure (SMILES): CCCC(CCC)C(=O)O [valproic acid]
- elimination half-life (adults): 6 to 17 h
- elimination half-life (children): 4 to 14 h
